Measurements taken from patent publication US10537523B2, “Oral suspension comprising telmisartan” (Boehringer Ingelheim Vetmedica GmbH, priority 2009, dated 2020).

Experiment: pH-dependent solubility of telmisartan in aqueous formulation
Assay type: physicochemical
Settings: concentrations of active substance greater than 1 mg/ml
Source text: The aim of the present invention is to provide a pharmaceutical solution, preferably a drinkable pharmaceutical solution containing an angiotensin-II-receptor antagonist. Preferred angiotensin II receptor antagonists are the substances known by the following INN names: candesartan, eprosartan, irbesartan, losartan, olmesartan, tasosartan, telmisartan and valsartan, and the pharmaceutically acceptable salts, hydrates or polymorphs thereof. The concentration of the angiotensin-II-receptor antagonist, preferably telmisartan, needed in the solution in order to achieve therapeutic doses should be between 1 mg/ml and 10 mg/ml. Moreover, because of the strongly pH-dependent solubility profile of telmisartan an aqueous formulation should have a pH that is either less than 2 or more than 10, in order to ensure a physically stable solution.
The very powerfully astringent effect of such acidic solutions makes acidic formulations of this kind totally unsuitable for long-term use particularly in children but also in domestic pets such as dogs and cats.
It has thus been shown that the stability of a drinkable telmisartan solution is dependent on the amount of reducing sugar contained in the sugar alcohol. The stability of a drinkable telmisartan solution deteriorates as the content of reducing sugars increases. […]

CCCc1nc2c(C)cc(-c3nc4ccccc4n3C)cc2n1Cc1ccc(-c2ccccc2C(=O)O)cc1 [telmisartan, 4′-((2-n-propyl-4-methyl-6-(1-methylbenz-imidazol-2-yl)-benzimidazol-1-yl)methyl)biphenyl-2-carboxylic acid]
pH needed for dissolved active substance in acid range: less than 1.5
